Consider three molecules from paper doi:10.1101/2023.09.03.556088, “Protein coopted from a phage restriction system dictates orthogonal cell division plane selection in Staphylococcus aureus” (bioRxiv, 2023).

One data set addresses T1, PcdA (Staphylococcus aureus, UniProt A0A0H2XHA0).
T1 construct: gene SAUSA300_2094; full-length, untagged; His6-SUMO fusion (pTB146, pFRL159) cleaved with Ulp1; expressed in E. coli BL21(DE3)
T1 sequence (A0A0H2XHA0 1-457): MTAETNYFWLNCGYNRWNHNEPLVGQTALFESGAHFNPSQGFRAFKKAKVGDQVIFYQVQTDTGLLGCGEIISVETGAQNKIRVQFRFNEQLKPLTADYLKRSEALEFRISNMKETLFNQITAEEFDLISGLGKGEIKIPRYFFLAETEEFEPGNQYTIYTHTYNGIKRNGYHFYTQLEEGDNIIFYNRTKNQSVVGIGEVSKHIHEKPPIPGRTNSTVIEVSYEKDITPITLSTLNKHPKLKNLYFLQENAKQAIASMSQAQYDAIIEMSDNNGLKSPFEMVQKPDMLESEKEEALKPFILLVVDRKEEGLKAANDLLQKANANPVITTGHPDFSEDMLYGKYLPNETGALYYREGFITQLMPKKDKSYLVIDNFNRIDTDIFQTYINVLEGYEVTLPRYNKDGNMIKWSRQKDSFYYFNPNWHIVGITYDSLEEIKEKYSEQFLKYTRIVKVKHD
The data set is described as follows: inorganic phosphate release (PiColorLock). Format: biochemical. The settings on record: 50 mM Tris-HCl pH 8.0, 150 mM KCl, 5 mM MgCl2, 37 °C, 0.25-4 mM NTP, 2.5 μM protein.

Data set [1] deals with the molecule itself. In words: co-sedimentation; with 2 mM GMPCPP; 30 μM FtsZ with or without PcdA (5 μM in the legend, 10 μM in the methods); 20 mM HEPES pH 7.5, 140 mM KCl, 5 mM MgCl2; 10 min at 37 °C, then 30 min at 129,000 × g; supernatant and pellet on SDS-PAGE, Coomassie.

As to `Nc1ncnc2c1ncn2[C@@H]1O[C@H](COP(=O)(O)OP(=O)(O)OP(=O)(O)O)[C@@H](O)[C@H]1O` [ATP], the kcat result at PcdA is “Incubation of increasing concentrations of either ATP or GTP with PcdA produced saturation curves”.

For the molecule `Nc1nc2c(ncn2[C@@H]2O[C@H](COP(=O)(O)OP(=O)(O)OP(=O)(O)O)[C@@H](O)[C@H]2O)c(=O)[nH]1` [GTP], the kcat result on PcdA is “Incubation of increasing concentrations of either ATP or GTP with PcdA produced saturation curves”.

B1: FtsZ (purified recombinant untagged S. aureus FtsZ) (natural protein, UniProt P0A031 1-390, looked up)
chain: MLEFEQGFNHLATLKVIGVGGGGNNAVNRMIDHGMNNVEFIAINTDGQALNLSKAESKIQIGEKLTRGLGAGANPEIGKKAAEESREQIEDAIQGADMVFVTSGMGGGTGTGAAPVVAKIAKEMGALTVGVVTRPFSFEGRKRQTQAAAGVEAMKAAVDTLIVIPNDRLLDIVDKSTPMMEAFKEADNVLRQGVQGISDLIAVSGEVNLDFADVKTIMSNQGSALMGIGVSSGENRAVEAAKKAISSPLLETSIVGAQGVLMNITGGESLSLFEAQEAADIVQDAADEDVNMIFGTVINPELQDEIVVTVIATGFDDKPTSHGRKSGSTGFGTSVNTSSNATSKDESFTSNSSNAQATDSVSERTHTTKEDDIPSFIRNREERRSRRTRR
notes: FtsZ, tubulin homolog, Staphylococcus aureus; Polymerised with GMPCPP in the co-sedimentation assay, unpolymerised (no GTP) in the filter retention assay
Regarding B1, the binding result in data set [1] is recorded as “binds”.
